Patent US20060293259A1, “Compositions and methods of use of derivatized flavanols” (Mars, Incorporated, priority 2005, published 2006)

How the values were obtained:
[1] = system: human umbilical vein endothelial cell (HUVEC); test: MTT assay for toxic effects in HUVEC; assay type: cell-based; settings: acute effect test, 100 nM, and 10 μM
Protocol: (§1) Test compounds were evaluated with respect to their potential to acutely (2 hours) and chronically (5 doses given in a 24 h period) modulate NO production. Positive controls (acetylcholine and/or histamine) and negative control L-NNMA (NO synthase inhibitor) were included in all experiments. Cell counts and total protein were used to assess intra-assay variation. Potential toxic effects of tested compounds were also monitored (MTT reduction was measured).
(§2) For the acute effect test, HUVECs were incubated with a single dose of 4′-O-ethyl (−) epicatechin, 4′-O-methyl (−) catechin, 3′-O-methyl (−) catechin which may be prepared as described in Ex. 1 using (−) catechin as a starting material, for 2 and 24 hours at concentrations of 100 nM, […], and 10 μM at 37 C and 5% CO2.

[2] = system: human umbilical vein endothelial cell (HUVEC); test: NO production (NOx in culture medium) by HUVEC; assay type: cell-based; settings: for effect on NO production, chronic effect test: 5 subsequent doses, each for 24 hours; for effect on NO production, acute effect test: single dose, 2 and 24 hours, 100 nM, and 10 μM
Protocol: Alkylated compounds, obtained as described in Example 1, were investigated for their effect on nitric oxide (NO) production and vasorelaxation using serum-free human umbilical vein endothelial cell (HUVEC) culture system in vitro. NO production by endothelial cells and relaxation of pre-constricted aortic rings are two main markers for evaluating cardiovascular effects of test compounds.
HUVECs obtained from a single donor were cultured in serum free, low protein (0.5 g/l), antibiotic-free cell culture medium supplemented with essential growth factors, nutrients and minerals. […] The cell culture medium was substituted with apo-transferrin, superoxide dismutase, and catalase to exclude secondary effects of test compounds involving their auto-oxidation mediated hydrogen peroxide formation.
as §1
NO production was evaluated by measuring the total amount of all major nitric oxide end products (NOx, including nitrate, nitrite, nitrosothiols) present in the cell culture medium. […] The amount of NO released from the culture medium was subsequently evaluated by measuring the chemiluminescence emitted during the stoichiometrical reaction between ozone and NO using NO Analyzer (Sievers Instruments, Inc. Boulder, Colo.).
The data presented herein were obtained from three experiments and were expressed as the concentration of NO present (in μmol/l) (as NOx) in the cell culture medium+/−standard deviation (SD). The data were corrected for the NOx intrinsically present in the fully supplemented cell culture medium and normalized with respect to the volume of media from which the sample was drawn. Data were analyzed using Student's t-test with a 95% level of confidence. P values equal to or less than […] were defined as statistically significant.
as §2
For the chronic effect test, HUVECs were incubated with 5 subsequent doses of test compounds, each for 24 hours. After each 24 hour treatment, culture medium was replaced.

[3] = system: CD62P on platelets associated with monocytes and neutrophils; test: Platelet activation (CD62P, P-selectin) on platelets associated with leukocytes; assay type: cell-based, human; settings: FIG. 2; collagen 0.125-0.5 μg/ml; 10 min; flavanols 0.3 mM, aspirin 100 μM
Protocol: (§3) Platelet aggregation was measured using a platelet counting technique, and formation of platelet/monocyte conjugates (P/M) and platelet/neutrophil conjugates (P/N) by flow cytometry. In later experiments the activation state of platelets associated with leukocytes (CD62P) was also measured and also the activation state of the leukocytes themselves (CD11b).
(§4) Flow cytometry was carried out using commercially available fluorescent labelled antibodies on a Facscan (Becton Dickinson, UK) equipped with a 5 W laser operating at 15 mW power and a wavelength of 488 nm or an LSRII flow cytometer (Becton Dickinson, UK) equipped with an additional red Trigon laser operating at a wavelength of 633 nm.
Blood was obtained from healthy volunteers, who denied taking any aspirin or non-steroidal anti-inflammatory drugs (NSAID) in the previous 10 days. This blood was dispensed into graduated polystyrene tubes that contained hirudin (final concentration 50 μg/ml) and a small volume of the flavanol under investigation or ethanol as control. […]
(§5) Platelet-leukocyte conjugate formation was measured in the same stirred samples used to measure platelet aggregation. […] Fluorescence parameters were acquired with logarithmic amplification. Platelet monocyte (P/M) and platelet neutrophil (P/N) conjugates were quantified as median CD42a (FITC) fluorescence of the monocyte (P/M mf) or neutrophil population (P/N mf). Leukocyte activation was measured by CD11b (AlexaFluor647) expression (CD11b-M for monocytes and CD11b-N for neutrophils). Platelet activation (P-selectin expression) was measured by CD62P (PE) positivity of the platelets associated with leukocytes as (CD62P-M on P/M and CD62P-N on P/N).
From this point on it was decided to include measures of the extent of the activation of both platelets and leukocytes in the conjugates that formed following addition of collagen to blood. P-selectin (CD62P) was measured on the platelets associated with leukocytes in the conjugates that formed. Leukocyte activation was measured as the amount of CD11b that was expressed. […]

[4] = system: platelets in whole blood; test: Collagen-induced platelet aggregation in whole blood (platelet counting); assay type: cell-based, human; settings: aspirin 100 μM; for inhibition of collagen-induced platelet aggregation: first experiment (FIG. 1), collagen 0.125, 0.25, 0.5 μg/ml, 4 and 10 min, test flavanols 0.3 mM, mean of n=9; for inhibition of collagen induced aggregation: second experiment (FIG. 2), collagen 0.125-0.5 μg/ml, 4 min, flavanols 0.3 mM, n=9
Protocol: as §3
Blood samples were studied using the Multi-Sample Agitator (MSA) produced by the Medical Engineering Unit (University of Nottingham). The MSA is used to maintain blood samples at 37° C. and to agitate small samples of blood at a stir speed of 1,000 rpm as required.
(§6) Blood was obtained from healthy volunteers, who denied taking any aspirin or non-steroidal anti-inflammatory drugs (NSAID) in the previous 10 days. This blood was dispensed into graduated polystyrene tubes that contained hirudin (final concentration 50 μg/ml) and a small volume of the flavanol under investigation or ethanol as control. The final concentration of ethanol in the blood was always 0.3%. In some experiments, aspirin (ASA) or saline as control was also included in the tube. The tubes were then capped and inverted three times to ensure adequate mixing then placed in the MSA at 37° C. for 30 min before the experiments were performed, during which time the blood was left undisturbed. A further sample of blood was taken into a commercially prepared vacutainer tube that contained K2EDTA as anticoagulant.
Following a 30 min pre-incubation period, aliquots of blood (480 μl) were dispensed into small polystyrene tubes each containing a stir bar and stirred for 2 min in the MSA. After 2 min a solution (20 μl) of agonist or vehicle control were added to the tubes. These were then stirred in the MSA for up to 10 min at which time the platelet aggregates were fixed by mixing a small sub sample with fixative solution in a 1:2 ratio (v/v). The platelet count in the fixed samples was determined using the UltraFlo-100 Whole Blood Platelet Counter. Platelet aggregation was calculated as the percentage loss of single platelets with reference to the platelet count of the EDTA sample.
Blood was obtained from three different volunteers and the platelet aggregation and platelet/leukocyte conjugate formation was measured in response to collagen (0, 0.125, 0.25 and 0.5 μg/ml). In this experiment the highest collagen concentration used previously (1 μg/ml) was replaced with a lower concentration of collagen (0.125 μg/ml) to optimise the inhibition brought about by the different flavanols. In these experiments (+) catechin (Sigma) was used at 1 mM, aspirin (100 μM) and the test flavanols at 0.3 mM with the exception of EP−(0.1 mM) and 4 mCAT (0.05 mM). Aggregation was measured at 4 and 10 min following agonist addition and platelet/leukocyte conjugate formation only at 10 min.
The absolute response of the blood from the different volunteers to collagen varied. This meant that the relative inhibitory effects of a flavanol was dependent on the volunteer's responsiveness to the particular collagen concentration used. For this reason it was decided that an appropriate means of analysing the results, for comparative purposes, would be to calculate the mean values for each flavanol irrespective of the collagen concentration used. (Because, for each of the three blood samples three concentrations of collagen were used, the results are each the means (±sem) of nine individual values).
Blood was obtained from three different volunteers and the platelet aggregation (4 min) and platelet/leukocyte conjugate formation (10 min) was measured in response to collagen (0, 0.125, 0.25 and 0.5 μg/ml). At the same time the activation of platelets and leukocytes in the conjugates were measured by incubation with CD62P and CD11b antibodies. In these experiments aspirin was used at a concentration of 100 μM and derivatized flavanols and procyanidins at 0.3 mM with the exception of EP-(0.1 mM) and 4mCAT (0.05 mM). […]

[5] = system: CD11b on monocytes and neutrophils; test: Leukocyte activation (CD11b expression) on monocytes and neutrophils; assay type: cell-based, human; settings: FIG. 2; collagen 0.125-0.5 μg/ml; 10 min; flavanols 0.3 mM, aspirin 100 μM
Protocol: as §3
Flow cytometry was carried out using commercially available fluorescent labelled antibodies on a Facscan (Becton Dickinson, UK) equipped with a 5 W laser operating at 15 mW power and a wavelength of 488 nm or an LSRII flow cytometer (Becton Dickinson, UK) equipped with an additional red Trigon laser operating at a wavelength of 633 nm. […]
as §5, with “P/N). […]” for “P/N).”

[6] = system: platelet/neutrophil conjugates; test: Platelet/neutrophil conjugate (P/N) formation in whole blood by flow cytometry; assay type: cell-based, human; settings: collagen 0.125-0.5 μg/ml, 10 min, aspirin 100 μM; for inhibition of platelet/neutrophil conjugate formation (P/N): first experiment (FIG. 1), test flavanols 0.3 mM; for inhibition of P/N: second experiment (FIG. 2), flavanols 0.3 mM
Protocol: as §3, §4, §6
(§7) Platelet-leukocyte conjugate formation was measured in the same stirred samples used to measure platelet aggregation. Sub samples were taken 4 min or 10 min following the addition of agonist and transferred into the appropriate antibody or antibody mixture. These were then incubated in the dark at room temperature for not less than 20 min. Following red cell lysis and a washing procedure the cell suspensions were applied to either the FACScan or the LSRII flow cytometer. Leukocytes were identified by logical gating from dot plots of forward scatter (cell size) and side scatter (cell granularity) profiles acquired with linear amplification. Monocytes were identified by their forward scatter-side scatter profile and CD14 (PE) positivity, while neutrophils were identified in the same way but were negative for CD14 expression. The “pan” leukocyte marker, CD45 (PerCP) was also used to identify the leukocyte population. Fluorescence parameters were acquired with logarithmic amplification. Platelet monocyte (P/M) and platelet neutrophil (P/N) conjugates were quantified as median CD42a (FITC) fluorescence of the monocyte (P/M mf) or neutrophil population (P/N mf). Leukocyte activation was measured by CD11b (AlexaFluor647) expression (CD11b-M for monocytes and CD11b-N for neutrophils). Platelet activation (P-selectin expression) was measured by CD62P (PE) positivity of the platelets associated with leukocytes as (CD62P-M on P/M and CD62P-N on P/N).
The FACScan was used to measure the fluorescent probes in experiments where three colors were used together, but the LSRII was needed in order to study four colors. The LSRII is a more sensitive machine and produces higher fluorescence values (mf) than the FACScan. Results obtained on the FACScan cannot be directly compared with the results obtained on the LSRII.
Blood was obtained from three different volunteers and the platelet aggregation and platelet/leukocyte conjugate formation was measured in response to collagen (0, 0.125, 0.25 and 0.5 μg/ml). In this experiment the highest collagen concentration used previously (1 μg/ml) was replaced with a lower concentration of collagen (0.125 μg/ml) to optimise the inhibition brought about by the different flavanols. In these experiments (+) catechin (Sigma) was used at 1 mM, aspirin (100 μM) and the test flavanols at 0.3 mM with the exception of EP−(0.1 mM) and 4 mCAT (0.05 mM). […]

[7] = system: platelet/monocyte conjugates; test: Platelet/monocyte conjugate (P/M) formation in whole blood by flow cytometry; assay type: cell-based, human; settings: collagen 0.125-0.5 μg/ml, 10 min, aspirin 100 μM; for inhibition of platelet/monocyte conjugation (P/M): first experiment (FIG. 1), test flavanols 0.3 mM; for inhibition of P/M: second experiment (FIG. 2), flavanols 0.3 mM
Protocol: as §3, §4, §6, §7
The FACScan was used to measure the fluorescent probes in experiments where three colors were used together, but the LSRII was needed in order to study four colors. The LSRII is a more sensitive machine and produces higher fluorescence values (mf) than the FACScan. […]
Blood was obtained from three different volunteers and the platelet aggregation and platelet/leukocyte conjugate formation was measured in response to collagen (0, 0.125, 0.25 and 0.5 μg/ml). […]

Row | Compound | toxic effects (MTT assay) [1] | effect on NO production, chronic effect test [2] | effect on NO production, acute effect test [2] | inhibition of platelet activation (CD62P) on monocytes and neutrophils [3] | inhibition of collagen-induced platelet aggregation [4] | inhibition of collagen induced aggregation [4] | inhibition of leukocyte activation (CD11b on monocytes and neutrophils) [5] | inhibition of platelet/neutrophil conjugate formation (P/N) [6] | inhibition of P/N [6] | inhibition of platelet/monocyte conjugation (P/M) [7] | inhibition of P/M [7] | effect on NO production, chronic effect test ([2]; 10 μM concentration, p=0.004)
1 | COc1ccc([C@H]2Oc3cc(O)cc(O)c3C[C@@H]2O)cc1O [4′-O-methyl (−) catechin] | did not have toxic effects | no statistically significant effect | no statistically significant effect |  |  |  |  |  |  |  |  | 
2 | CC(=O)Oc1ccccc1C(=O)O [ASA, acetyl salicylic acid, reference compound] |  |  |  | expected effects | effectively inhibited | expected effects | no effect | effectively inhibited | expected effects | effectively inhibited |  | 
3 | COc1ccc(C2Oc3cc(O)cc(O)c3CC2O)cc1O (stereo not shown) [4mEPCAT, 4′OMe epicatechin] |  |  |  | best inhibited | significant effect | among the most effective | among the most effective | among the most effective | most effective | significant effect | significant effect | 
4 | CCOc1ccc([C@H]2Oc3cc(O)cc(O)c3C[C@H]2O)cc1O [4′-O-ethyl (−) epicatechin] | did not have toxic effects |  | no statistically significant effect |  |  |  |  |  |  |  |  | statistically significant increase
5 | COc1cc(C2Oc3cc(O)cc(O)c3CC2O)ccc1O (stereo not shown) [3mCAT, 3′OMe catechin] |  |  |  | best inhibited | significant effect | among the most effective |  | among the most effective | most effective | significant effect | significant effect | 
6 | 3′-O-methyl (−) catechin | did not have toxic effects | no statistically significant effect | no statistically significant effect |  |  |  |  |  |  |  |  | 
